# Data taken from patent US20070249686A1, “Modulators of Crth-2 Receptor Activity for the Treatment of Prostaglandin D2 Mediated Diseases” (ASTRAZENECA AB, priority 2004, published 2007).
# Target: T1, CRTh2 (Homo sapiens, UniProt Q9Y5Y4)
# T1 construct: expressed in transfected cells; host or cells: HEK cells (membrane preparation)
# T1 sequence (Q9Y5Y4 1-395): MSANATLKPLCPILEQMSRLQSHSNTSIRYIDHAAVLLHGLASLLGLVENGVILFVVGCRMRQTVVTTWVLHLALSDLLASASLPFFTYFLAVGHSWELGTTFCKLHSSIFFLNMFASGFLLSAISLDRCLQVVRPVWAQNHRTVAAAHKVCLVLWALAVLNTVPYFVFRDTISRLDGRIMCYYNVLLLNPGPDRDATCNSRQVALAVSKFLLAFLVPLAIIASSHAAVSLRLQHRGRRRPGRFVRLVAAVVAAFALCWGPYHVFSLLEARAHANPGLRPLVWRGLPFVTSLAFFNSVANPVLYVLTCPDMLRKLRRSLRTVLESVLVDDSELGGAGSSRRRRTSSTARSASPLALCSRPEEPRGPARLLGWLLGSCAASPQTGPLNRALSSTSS
# Experiment: Ligand binding assay: [3H]PGD2 binding to membranes of HEK cells expressing rhCRTh2/Gα16 (SPA beads)
# Details: [3H]PGD2 displacement, HEK cell membranes containing CRTh2, SPA, 2 hours at room temperature
# Experimental: [hu 3H]PGD2 was purchased from Perkin Elmer Life Sciences with a specific activity of 100-210 Ci/mmol. All other chemicals were of analytical grade.
# HEK cells expressing rhCRTh2/Gα16 were routinely maintained in DMEM containing 10% Foetal Bovine Serum (HyClone), 1 mg/ml geneticin, 2 mM L-glutamine and 1% non-essential amino acids. For the preparation of membranes, the adherent transfected HEKcells were grown to confluence in two layer tissue culture factories (Fisher, catalogue number TKT-170-070E). Maximal levels of receptor expression were induced by addition of […] sodium butyrate for the last 18 hours of culture. The adherent cells were washed once with phosphate buffered saline (PBS, 50 ml per cell factory) and detached by the addition of 50 ml per cell factory of ice-cold membrane homogenisation buffer [20 mM HEPES (pH 7.4), 0.1 mM dithiothreitol, 1 mM EDTA, 0.1 mM phenyl methyl sulphonyl fluoride and 100 μg/ml bacitracin]. […] The final pellet was re-suspended in 4 ml of membrane homogenisation buffer per cell factory used and the protein content determined. […]
# All assays were performed in Corning clear bottomed, white 96-well NBS plates (Fisher). […] (The optimum coating concentrations were determined for each batch of membranes) The beads were pelleted by centrifugation (800×g for 7minutes at 4° C.), washed once with assay buffer (50 mM HEPES pH 7.4 containing 5 mM magnesium chloride) and finally re-suspended in assay buffer at a bead concentration of 10 mg/ml.
# Each assay contained 20 μl of 6.25 nM [^3H]PGD2, 20 μl membrane saturated SPA beads both in assay buffer and 10 μl of compound solution or 13,14-dihydro-15-keto prostaglandin D2 (DK-PGD2, for determination of non-specific binding, Cayman chemical company). […] The assay plate was incubated at room temperature for 2 hours and counted on a Wallac Microbeta liquid scintillation counter (1 minute per well).
row,IC50 [nM],Compound
1,63.1,"CCS(=O)(=O)c1ccc(-c2nc(C)ccc2OCC(=O)O)c(C)c1 [Example 11, ({2-[4-(Ethylsulfonyl)-2-methylphenyl]-6-methylpyridin-3-yl}oxy)acetic acid]"
2,10,"Cc1nn(S(=O)(=O)N(C)C)cc1-c1cc(C(F)(F)F)ccc1O[C@@H](C)C(=O)O [Example 22, (2S)-2-[2-{1-[(Dimethylamino)sulfonyl]-3-methyl-1H-pyrazol-4-yl}-4-(trifluoromethyl)phenoxy]propanoic acid]"
3,39.8,"CS(=O)(=O)c1ccc(-c2cc(C(F)(F)F)ccc2CCC(=O)O)cc1C(F)(F)F [Example 31, 3-[4′-(Methylsulfonyl)-3′,5-bis(trifluoromethyl)biphenyl-2-yl]propanoic acid]"
